The source of these data is patent US11034650B2, “Compounds useful for treating a Mannheimia haemolytica or Histophilus somni infection” (Intervet Inc., priority 2016, dated 2021).

Converted amounts (≈) assume the structure as drawn. Where only a bound is given, the exact number is not on record here.

One assay concerns Mannheimia haemolytica MH 12587 (1071, BRD field isolate, macrolide-resistance: erm+, E+). The assay is described as follows: MIC, broth-microdilution (CLSI VET01-A4), strain MH 12587. Particulars: Mannheimia haemolytica strain MH 12587, broth-microdilution; unit assumed. It counts as cell-based. A digest of the protocol: (§1)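 Doubling dilution series in trays; visual read, MIC = lowest conc. with no visible turbidity; interpretation per CLSI VET01-S3.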
The compound `CC[C@H](C)[C@H](NC(=O)c1ccc(C#Cc2ccc(CN3CCCOCC3)cc2)cc1)C(=O)NO` [Compound 186] had an MIC MH 12587 of 6.3 µg/mL (≈ 13.6 µM).
The same measure, in the same setting: with `C=CCNCc1ccc(C#Cc2ccc(C(=O)N[C@H](C(=O)NO)C(C)(C)O)cc2)cn1` [Compound 361] the figure was 3.1 µg/mL (≈ 7.34 µM); with `CSC(C)(C)[C@H](NC(=O)c1ccc(C#Cc2ccc(CNC3CC3)nc2)cc1)C(=O)NO` [Compound 335], 3.1 µg/mL (≈ 6.85 µM); with `CC(C)[C@H](NC(=O)c1ccc(C#Cc2ccc(CN3CCN(C)CC3)cc2)cc1)C(=O)NO` [Compound 211], 12.5 µg/mL (≈ 27.9 µM).

In the next assay the test system is Mannheimia haemolytica MH 13065 (XB0446-6003.9, BRD field isolate). Put plainly: MIC, broth-microdilution (CLSI VET01-A4), strain MH 13065. In kind it is cell-based. Particulars: Mannheimia haemolytica strain MH 13065, broth-microdilution; unit assumed. In outline:
as §1
The compound `CC[C@H](C)[C@H](NC(=O)c1ccc(C#Cc2ccc(CN3CCCOCC3)cc2)cc1)C(=O)NO` [Compound 186] returned an MIC MH 13065 of 3.1 µg/mL (≈ 6.69 µM).
On the same count and under the same terms, the same measure for `C=CCNCc1ccc(C#Cc2ccc(C(=O)N[C@H](C(=O)NO)C(C)(C)O)cc2)cn1` [Compound 361]: 1.6 µg/mL (≈ 3.79 µM); for `CSC(C)(C)[C@H](NC(=O)c1ccc(C#Cc2ccc(CNC3CC3)nc2)cc1)C(=O)NO` [Compound 335]: 0.4 µg/mL (≈ 0.884 µM).
`CC(C)[C@H](NC(=O)c1ccc(C#Cc2ccc(CN3CCN(C)CC3)cc2)cc1)C(=O)NO` [Compound 211] returned an MIC MH 13065 of 6.3 µg/mL (≈ 14 µM).

For another assay, the system named is Mannheimia haemolytica MH 13093 (XB0472-6014.1, BRD field isolate). Put plainly: MIC, broth-microdilution (CLSI VET01-A4), strain MH 13093. It counts as cell-based. Particulars: Mannheimia haemolytica strain MH 13093, broth-microdilution; unit assumed. A digest of the protocol:
as §1
As for `CC[C@H](C)[C@H](NC(=O)c1ccc(C#Cc2ccc(CN3CCCOCC3)cc2)cc1)C(=O)NO` [Compound 186], the MIC MH 13093 came to 3.1 µg/mL (≈ 6.69 µM).
The same measure, in the same setting: with `C=CCNCc1ccc(C#Cc2ccc(C(=O)N[C@H](C(=O)NO)C(C)(C)O)cc2)cn1` [Compound 361] the figure was 3.1 µg/mL (≈ 7.34 µM); with `CSC(C)(C)[C@H](NC(=O)c1ccc(C#Cc2ccc(CNC3CC3)nc2)cc1)C(=O)NO` [Compound 335], 0.8 µg/mL (≈ 1.77 µM); with `CC(C)[C@H](NC(=O)c1ccc(C#Cc2ccc(CN3CCN(C)CC3)cc2)cc1)C(=O)NO` [Compound 211], 6.3 µg/mL (≈ 14 µM).

For a further assay, the system named is Pasteurella multocida PM 6267 (P 2225 (L386), reference strain, mouse infection strain). The assay is described as follows: MIC, broth-microdilution (CLSI VET01-A4), strain PM 6267. In kind it is cell-based. Particulars: Pasteurella multocida strain PM 6267, broth-microdilution; unit assumed. In outline:
as §1
As for `CC[C@H](C)[C@H](NC(=O)c1ccc(C#Cc2ccc(CN3CCCOCC3)cc2)cc1)C(=O)NO` [Compound 186], the MIC PM 6267 is no more than 0.1 µg/mL.
Still for that read-out and setting: with `C=CCNCc1ccc(C#Cc2ccc(C(=O)N[C@H](C(=O)NO)C(C)(C)O)cc2)cn1` [Compound 361] the figure was 0.4 µg/mL (≈ 0.947 µM); with `CSC(C)(C)[C@H](NC(=O)c1ccc(C#Cc2ccc(CNC3CC3)nc2)cc1)C(=O)NO` [Compound 335], 0.4 µg/mL (≈ 0.884 µM).
Still for that read-out and setting: with `CC(C)[C@H](NC(=O)c1ccc(C#Cc2ccc(CN3CCN(C)CC3)cc2)cc1)C(=O)NO` [Compound 211] the figure was no more than 0.1 µg/mL.

For another assay, the system named is Pasteurella multocida PM 6391 (ATCC 43137, reference strain). The assay is described as follows: MIC, broth-microdilution (CLSI VET01-A4), strain PM 6391. It counts as cell-based. As to conditions: Pasteurella multocida strain PM 6391, broth-microdilution; unit assumed. A digest of the protocol: as §1
`CC[C@H](C)[C@H](NC(=O)c1ccc(C#Cc2ccc(CN3CCCOCC3)cc2)cc1)C(=O)NO` [Compound 186]: the MIC PM 6391 amounted to 0.4 µg/mL (≈ 0.863 µM).
The same measure, in the same setting: the same measure for `C=CCNCc1ccc(C#Cc2ccc(C(=O)N[C@H](C(=O)NO)C(C)(C)O)cc2)cn1` [Compound 361]: 0.4 µg/mL (≈ 0.947 µM); for `CSC(C)(C)[C@H](NC(=O)c1ccc(C#Cc2ccc(CNC3CC3)nc2)cc1)C(=O)NO` [Compound 335]: 0.4 µg/mL (≈ 0.884 µM).
In turn, `CC(C)[C@H](NC(=O)c1ccc(C#Cc2ccc(CN3CCN(C)CC3)cc2)cc1)C(=O)NO` [Compound 211] showed an MIC PM 6391 of 0.2 µg/mL (≈ 0.446 µM).

A further assay deals with Pasteurella multocida PM 10775 (080130003051, BRD field isolate). Put plainly: MIC, broth-microdilution (CLSI VET01-A4), strain PM 10775. It counts as cell-based. Particulars: Pasteurella multocida strain PM 10775, broth-microdilution; unit assumed. In outline:
as §1
Compound `CC[C@H](C)[C@H](NC(=O)c1ccc(C#Cc2ccc(CN3CCCOCC3)cc2)cc1)C(=O)NO` [Compound 186] had an MIC PM 10775 of no more than 0.1 µg/mL.
On the same count and under the same terms, the same measure for `C=CCNCc1ccc(C#Cc2ccc(C(=O)N[C@H](C(=O)NO)C(C)(C)O)cc2)cn1` [Compound 361]: no more than 0.1 µg/mL; for `CSC(C)(C)[C@H](NC(=O)c1ccc(C#Cc2ccc(CNC3CC3)nc2)cc1)C(=O)NO` [Compound 335]: no more than 0.1 µg/mL; for `CC(C)[C@H](NC(=O)c1ccc(C#Cc2ccc(CN3CCN(C)CC3)cc2)cc1)C(=O)NO` [Compound 211]: no more than 0.1 µg/mL.

A further assay has as its system Pasteurella multocida PM 12080 (IV102277-0093, BRD field isolate). Put plainly: MIC, broth-microdilution (CLSI VET01-A4), strain PM 12080. In kind it is cell-based. Particulars: Pasteurella multocida strain PM 12080, broth-microdilution; unit assumed. In outline: as §1
As for `CC[C@H](C)[C@H](NC(=O)c1ccc(C#Cc2ccc(CN3CCCOCC3)cc2)cc1)C(=O)NO` [Compound 186], the MIC PM 12080 worked out at 0.2 µg/mL (≈ 0.431 µM).
On to `C=CCNCc1ccc(C#Cc2ccc(C(=O)N[C@H](C(=O)NO)C(C)(C)O)cc2)cn1` [Compound 361], for which the MIC PM 12080 was determined as 0.2 µg/mL (≈ 0.473 µM).
On the same count and under the same terms, the same measure for `CSC(C)(C)[C@H](NC(=O)c1ccc(C#Cc2ccc(CNC3CC3)nc2)cc1)C(=O)NO` [Compound 335]: 0.2 µg/mL (≈ 0.442 µM).
Still for that read-out and setting: the same measure for `CC(C)[C@H](NC(=O)c1ccc(C#Cc2ccc(CN3CCN(C)CC3)cc2)cc1)C(=O)NO` [Compound 211]: no more than 0.1 µg/mL.

The test system of another assay is Mannheimia haemolytica MH 10720 (154, BRD field isolate). The assay is described as follows: MIC, broth-microdilution (CLSI VET01-A4), strain MH 10720. In kind it is cell-based. As to conditions: Mannheimia haemolytica strain MH 10720, broth-microdilution; unit assumed. A digest of the protocol:
as §1
Consider `CC[C@H](C)[C@H](NC(=O)c1ccc(C#Cc2ccc(CN3CCCOCC3)cc2)cc1)C(=O)NO` [Compound 186], for which the MIC MH 10720 was determined as 1.6 µg/mL (≈ 3.45 µM).
Still for that read-out and setting: the same measure for `C=CCNCc1ccc(C#Cc2ccc(C(=O)N[C@H](C(=O)NO)C(C)(C)O)cc2)cn1` [Compound 361]: 0.4 µg/mL (≈ 0.947 µM).
Consider `CSC(C)(C)[C@H](NC(=O)c1ccc(C#Cc2ccc(CNC3CC3)nc2)cc1)C(=O)NO` [Compound 335], for which the MIC MH 10720 was no more than 0.1 µg/mL.
In turn, `CC(C)[C@H](NC(=O)c1ccc(C#Cc2ccc(CN3CCN(C)CC3)cc2)cc1)C(=O)NO` [Compound 211] gave an MIC MH 10720 of 1.6 µg/mL (≈ 3.57 µM).

For another assay, the system named is Mannheimia haemolytica MH 6374 (ATCC 33396, reference strain). The assay is described as follows: MIC, broth-microdilution (CLSI VET01-A4), strain MH 6374. It counts as cell-based. Particulars: Mannheimia haemolytica strain MH 6374, broth-microdilution; unit assumed. A digest of the protocol: as §1
Take `CC[C@H](C)[C@H](NC(=O)c1ccc(C#Cc2ccc(CN3CCCOCC3)cc2)cc1)C(=O)NO` [Compound 186]: the MIC MH 6374 worked out at 6.3 µg/mL (≈ 13.6 µM).
Compound `C=CCNCc1ccc(C#Cc2ccc(C(=O)N[C@H](C(=O)NO)C(C)(C)O)cc2)cn1` [Compound 361] displayed an MIC MH 6374 of 0.8 µg/mL (≈ 1.89 µM).
On the same count and under the same terms, the same measure for `CSC(C)(C)[C@H](NC(=O)c1ccc(C#Cc2ccc(CNC3CC3)nc2)cc1)C(=O)NO` [Compound 335]: 0.8 µg/mL (≈ 1.77 µM); for `CC(C)[C@H](NC(=O)c1ccc(C#Cc2ccc(CN3CCN(C)CC3)cc2)cc1)C(=O)NO` [Compound 211]: 12.5 µg/mL (≈ 27.9 µM).

A further assay relates to Mannheimia haemolytica MH 6357 (M7/2, reference strain, cattle infection strain). The assay is described as follows: MIC, broth-microdilution (CLSI VET01-A4), strain MH 6357. In kind it is cell-based. Particulars: Mannheimia haemolytica strain MH 6357, broth-microdilution; unit assumed. In outline:
as §1
As to `CC[C@H](C)[C@H](NC(=O)c1ccc(C#Cc2ccc(CN3CCCOCC3)cc2)cc1)C(=O)NO` [Compound 186], the MIC MH 6357 was 1.6 µg/mL (≈ 3.45 µM).
As for `C=CCNCc1ccc(C#Cc2ccc(C(=O)N[C@H](C(=O)NO)C(C)(C)O)cc2)cn1` [Compound 361], the MIC MH 6357 was determined as 3.1 µg/mL (≈ 7.34 µM).
Turning to `CSC(C)(C)[C@H](NC(=O)c1ccc(C#Cc2ccc(CNC3CC3)nc2)cc1)C(=O)NO` [Compound 335], the MIC MH 6357 was 0.4 µg/mL (≈ 0.884 µM).
The compound `CC(C)[C@H](NC(=O)c1ccc(C#Cc2ccc(CN3CCN(C)CC3)cc2)cc1)C(=O)NO` [Compound 211] registered an MIC MH 6357 of 3.1 µg/mL (≈ 6.91 µM).
